The SangsterLogP compilation

Test: method code SF-TN, from DOI: 10.1007/bf00773207

**Q.** For COc1ccc(Nc2ccccc2C(=O)O)cc1, which logP is on record?
**A.** 3.68

**Q.** Which logP does the source give for O=C(O)c1ccccc1Nc1ccccc1 here?
**A.** 3.52

**Q.** For O=C(O)c1ccc(Cl)cc1Nc1cccc(Br)c1, which logP is on record?
**A.** 5.16

**Q.** Which logP does the source give for Cc1ccccc1Nc1cc(Cl)ccc1C(=O)O here?
**A.** 4.73

**Q.** With O=C(O)c1ccccc1Nc1ccc(Cl)cc1 as the molecule, how does the logP read?
**A.** 4.24

**Q.** Which logP does the source give for Cc1ccccc1Nc1ccccc1C(=O)O here?
**A.** 4.01

**Q.** Which logP does the source give for COc1ccccc1Nc1ccccc1C(=O)O here?
**A.** 3.6

**Q.** For Cc1ccc(Nc2cc(Cl)ccc2C(=O)O)cc1C, which logP is on record?
**A.** 5.43

**Q.** With O=C(O)c1ccc(Cl)cc1Nc1ccccc1 as the molecule, how does the logP read?
**A.** 4.25

**Q.** For O=C(O)c1ccc(Cl)cc1Nc1ccc(Cl)cc1, which logP is on record?
**A.** 4.97

**Q.** Which logP does the source give for O=C(O)c1ccc(Cl)cc1Nc1cccc([N+](=O)[O-])c1 here?
**A.** 4.05

**Q.** For Cc1cc(C)cc(Nc2cc(Cl)ccc2C(=O)O)c1, which logP is on record?
**A.** 5.48

**Q.** With O=C(O)c1ccc(Cl)cc1Nc1ccc([N+](=O)[O-])cc1 as the molecule, how does the logP read?
**A.** 4.04

**Q.** For COc1ccccc1Nc1cc(Cl)ccc1C(=O)O, which logP is on record?
**A.** 4.32

**Q.** With O=C(O)c1ccccc1Nc1ccccc1Cl as the molecule, how does the logP read?
**A.** 3.94

**Q.** Which logP does the source give for Cc1ccc(Nc2ccccc2C(=O)O)cc1 here?
**A.** 4.09

**Q.** For Cc1ccc(Nc2cc(Cl)ccc2C(=O)O)cc1, which logP is on record?
**A.** 4.81

**Q.** Which logP does the source give for COc1ccc(Nc2cc(Cl)ccc2C(=O)O)cc1 here?
**A.** 4.41

**Q.** With O=C(O)c1ccc(Cl)cc1Nc1cccc(Cl)c1 as the molecule, how does the logP read?
**A.** 5

**Q.** For O=C(O)c1ccc(Cl)cc1Nc1ccc(I)cc1, which logP is on record?
**A.** 5.37

**Q.** For O=C(O)c1ccc(Cl)cc1Nc1ccccc1Cl, which logP is on record?
**A.** 4.67
